Experiment [1] concerns MCF7. The experiment in a line: Antiproliferative activity against human MCF7 cells after 3 days by MTT assay. The settings on record: MCF7, 72 h. The class given is functional, cell-based. Background: Tetrazolium dyes change colour on reduction, which living cells bring about.
For experiment [2], the target named is MAP kinase p38 (Homo sapiens, UniProt O15264+Q15759+Q16539+P53778). As to the kind of experiment: Inhibition of p38 MAPK (unknown origin) using ATF2 as substrate measured after 15 by ELISA. A general note: ELISA stands for enzyme-linked immunosorbent assay.
Experiment [3] relates to MCF7. The experiment in a line: Potency index, ratio of Doxorubicin IC50 to compound IC50 against human MCF7 cells. The class given is functional.
Experiment [4] has as its system MCF7. The experiment in a line: Cell cycle arrest in human MCF7 cells assessed as accumulation at G2 phase after 24 hrs by propidium iodide staining-based flow cytometric method (reference value: 6.4%). It is filed as functional. (In general: Flow cytometry measures light scatter and fluorescence of single cells or particles in a stream.)
The subject of experiment [5] is MCF7. The experiment in a line: Induction of apoptosis in human MCF7 cells assessed as necrotic cells after 24 hrs by Annexin-V/propidium iodide staining based FACS analysis (reference value: 0.3%). The class given is functional.
For experiment [6], the system named is MCF7. As to the kind of experiment: Induction of apoptosis in human MCF7 cells assessed as increase in caspase3 level at 0.007 uM after 24 hrs by ELISA. It is filed as functional.
Experiment [7] relates to MCF7. As to the kind of experiment: Induction of apoptosis in human MCF7 cells assessed as viable cells after 24 hrs by Annexin-V/propidium iodide staining based FACS analysis (reference value: 92.7%). It is filed as functional.
In experiment [8] the test system is MCF7. The experiment in a line: Induction of apoptosis in human MCF7 cells assessed as early apoptotic cells after 24 hrs by Annexin-V/propidium iodide staining based FACS analysis (reference value: 2.7%). It is filed as functional.
The test system of experiment [9] is MCF7. As to the kind of experiment: Cell cycle arrest in human MCF7 cells assessed as accumulation at S phase after 24 hrs by propidium iodide staining-based flow cytometric method (reference value: 25.1%). It is filed as functional.
In experiment [10] the test system is MCF7. The experiment in a line: Cell cycle arrest in human MCF7 cells assessed as accumulation at G1 phase after 24 hrs by propidium iodide staining-based flow cytometric method (reference value: 67.2%). It is filed as functional.
Experiment [11] has as its system MCF7. The experiment in a line: Induction of apoptosis in human MCF7 cells assessed as increase in caspase9 level at 0.007 uM after 24 hrs by ELISA. The class given is functional.
Experiment [12] concerns MCF7. As to the kind of experiment: Induction of apoptosis in human MCF7 cells assessed as late apoptotic cells after 24 hrs by Annexin-V/propidium iodide staining based FACS analysis (reference value: 4.3%). It is filed as functional.

The values that follow come from ChEMBL document CHEMBL4011601, “Synthesis and molecular docking studies of new furochromone derivatives as p38α MAPK inhibitors targeting human breast cancer MCF-7 cells” (Bioorg Med Chem, 2017).

Structures are written as SMILES.

The IC50 is the concentration needed to halve the response being measured.

`COc1ccc(-c2cc(-c3c(C)oc4c(OC)c5occc5c(OC)c4c3=O)[nH]c(=N)c2C#N)cc1OC`: the IC50 was determined as 10 nM in experiment [1] and 310 nM in experiment [2].
As to `COc1c2occc2c(OC)c2c(=O)c(C3=NN(c4ccccc4)C(c4ccc(F)cc4)C3)c(C)oc12` (centres undefined), the IC50 in experiment [1] is 40 nM; in experiment [2], 1090 nM.
The matching figures for `COc1ccc(-c2cc(-c3c(C)oc4c(OC)c5occc5c(OC)c4c3=O)nc(=S)[nH]2)cc1OC`: 50 nM and 1390 nM.
For `COc1ccc(-c2cc(-c3c(C)oc4cc5occc5c(OC)c4c3=O)[nH]c(=N)c2C#N)cc1OC` the same measures were 50 nM and 720 nM.
The compound `COc1ccc(-c2cc(-c3c(C)oc4c(OC)c5occc5c(OC)c4c3=O)nc(=O)[nH]2)cc1OC` registered a 50% inhibitory concentration (IC50) in experiment [1] of 80 nM. This lies in the double-digit nanomolar range.
On the same count and under the same terms, then `COc1c2occc2c(OC)c2c(=O)c(C3=NN(C(C)=O)C(c4ccc(F)cc4)C3)c(C)oc12` (centres undefined), with 150 nM.
On to `COc1c2occc2c(OC)c2c(=O)c(C3=CC(c4ccc(F)cc4)=C4C(N)=NC=NC4N3)c(C)oc12` (centres undefined), for which the “Ratio IC50” value in experiment [3] amounted to 3.6. Besides, the half-inhibitory concentration (IC50) in experiment [1] stood at 170 nM.
In turn, `COc1ccc(-c2cc(-c3c(C)oc4cc5occc5c(OC)c4c3=O)[nH]c(=O)c2C#N)cc1OC` gave an IC50 in experiment [1] of 140 nM.
Consider `COc1c2occc2c(OC)c2c(=O)c(C3=CC(c4ccc(F)cc4)NO3)c(C)oc12` (centres undefined), for which the concentration for half-maximal inhibition (IC50) in [1] amounted to 40 nM; in experiment [2], 860 nM.
`COc1c2occc2c(OC)c2c(=O)c(-c3cc(-c4ccc(F)cc4)c(C#N)c(=N)[nH]3)c(C)oc12`: the 50% inhibitory concentration (IC50) came out at 20 nM in [1] and 630 nM in experiment [2].
With `COc1c2occc2c(OC)c2c(=O)c(-c3cc(-c4ccc(F)cc4)[nH]c(=S)n3)c(C)oc12`, the concentration for half-maximal inhibition (IC50) in [1] was 20 nM; in experiment [2] it was 380 nM.
In the case of `COc1c2ccoc2cc2oc(C)c(-c3cc(-c4ccc(F)cc4)c(C#N)c(=N)[nH]3)c(=O)c12`, the IC50 in [1] is 40 nM; in experiment [2], 190 nM.
On to `COc1c2occc2c(OC)c2c(=O)c(-c3cc(-c4ccc(F)cc4)c(C#N)c(=O)[nH]3)c(C)oc12`, for which the “Ratio IC50” value in [3] is 6. This compound showed an IC50 in experiment [1] of 100 nM.
With `COc1ccc(C2CC(c3c(C)oc4c(OC)c5occc5c(OC)c4c3=O)=NN2C(C)=O)cc1OC` (centres undefined), the concentration for half-maximal inhibition (IC50) was 7 nM in experiment [1] and 670 nM in experiment [2]. The Activity in experiment [4] is 21.2%; in experiment [5], 3.3%; in experiment [6] it was 446.6 ng/mL; in [7], 64.1%; in [8], 17.4%; in experiment [9] it was 24.3%. Also, the Activity in [10] is 31.2%; in experiment [11], 16.39 ng/mL; in experiment [12], 15.2%.
`COc1c2occc2c(OC)c2c(=O)c(-c3cc(-c4ccc(F)cc4)[nH]c(=O)n3)c(C)oc12` came in with a half-maximal inhibitory concentration (IC50) in experiment [1] of 80 nM.
For `COc1c2ccoc2cc2oc(C)c(-c3cc(-c4ccc(F)cc4)c(C#N)c(=O)[nH]3)c(=O)c12`, the figures for the IC50 in experiment [1] and in experiment [2] were 30 nM and 230 nM, respectively.
On to `COc1ccc(C2C=C(c3c(C)oc4c(OC)c5occc5c(OC)c4c3=O)ON2)cc1OC` (centres undefined), for which the values for the half-inhibitory concentration (IC50) in experiment [1] and in experiment [2] were 50 nM and 1090 nM, respectively.
